Laboratory results as given in PubChem BioAssay AID1963434 (Molecular Pharmacology Branch, DTP, NCI, 2024).

Tested on: 755483-174-R-J1-PDC complex spheroid growth, percent test/control
Assay: Anticancer human tumor 755483-174-R-J1-PDC patient-derived rhabdomyosarcoma cell line growth inhibition [Asc]
Details: for IC50: curve of first compound; for viability, T/C: stronger effect = lower value; active = viability on the fitted dose curve at most 10% of control; inactive = the rest
Procedure, shortened: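 Complex solid-tumor spheroids incorporating human endothelial and mesenchymal stem cells received single agents or combinations over half-log dilution ranges anchored to clinical Cmax.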

[1] = second compound 0.1 µM, first compound 0.00316 µM
[2] = second compound 0.1 µM, first compound 0.01 µM
[3] = second compound 0.1 µM, first compound 0.0316 µM
[4] = second compound 0.1 µM, first compound 0.1 µM
[5] = second compound 0.316 µM, first compound 0.00316 µM
[6] = second compound 0.316 µM, first compound 0.01 µM
[7] = second compound 0.316 µM, first compound 0.0316 µM
[8] = second compound 0.316 µM, first compound 0.1 µM
[9] = second compound 1 µM, first compound 0.00316 µM
[10] = second compound 1 µM, first compound 0.01 µM
[11] = second compound 1 µM, first compound 0.0316 µM
[12] = second compound 1 µM, first compound 0.1 µM
[13] = second compound 3.16 µM, first compound 0.00316 µM
[14] = second compound 3.16 µM, first compound 0.01 µM
[15] = second compound 3.16 µM, first compound 0.0316 µM
[16] = second compound 3.16 µM, first compound 0.1 µM
[17] = second compound 10 µM, first compound 0.00316 µM
[18] = second compound 10 µM, first compound 0.01 µM
[19] = second compound 10 µM, first compound 0.0316 µM
[20] = second compound 10 µM, first compound 0.1 µM
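Note: spheroids exposed to compounds for seven days before readout.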

COc1c(OCCCN2CCOCC2)ccc2c3n(c(=NC(=O)c4cnc(N)nc4)nc12)CCN3 + Cc1c(S(C)(=O)=O)c(-c2cc(F)cc(N3CCN(c4ccc(NS(=O)(=O)c5ccc(NC(CCN6CCC(C(=O)OCCCP(=O)(O)O)CC6)CSc6ccccc6)c(S(=O)(=O)C(F)(F)F)c5)cc4)CC3)c2)c(-c2ccc(Cl)cc2)n1C(C)C
active: viability, T/C (second compound 0.1 µM, first compound 0.316 µM) 6.56% | viability, T/C (second compound 0.1 µM, first compound 1 µM) 4% | viability, T/C (second compound 0.316 µM, first compound 0.316 µM) 5.57% | viability, T/C (second compound 0.316 µM, first compound 1 µM) 2.62% | viability, T/C (second compound 1 µM, first compound 0.316 µM) 5.22% | viability, T/C (second compound 1 µM, first compound 1 µM) 2.16% | viability, T/C (second compound 3.16 µM, first compound 0.316 µM) 5.03% | viability, T/C (second compound 3.16 µM, first compound 1 µM) 1.66% | viability, T/C (second compound 10 µM, first compound 0.316 µM) 4.21% | viability, T/C (second compound 10 µM, first compound 1 µM) 1.7%
< 3.16 nM: IC50 (second compound 0.1 µM) | IC50 (second compound 0.316 µM) | IC50 (second compound 1 µM) | IC50 (second compound 3.16 µM) | IC50 (second compound 10 µM)
inactive: viability, T/C [1] 39.6% | viability, T/C [2] 48% | viability, T/C [3] 33.2% | viability, T/C [4] 15.8% | viability, T/C [5] 32.8% | viability, T/C [6] 28.1% | viability, T/C [7] 31.9% | viability, T/C [8] 13% | viability, T/C [9] 34.3% | viability, T/C [10] 31.4% | viability, T/C [11] 18.6% | viability, T/C [12] 17.4% | viability, T/C [13] 26.5% | viability, T/C [14] 29.1% | viability, T/C [15] 20.2% | viability, T/C [16] 8.47% | viability, T/C [17] 40.9% | viability, T/C [18] 25.5% | viability, T/C [19] 19.1% | viability, T/C [20] 12.1%

NC(=O)C(=Cn1cnc(-c2cc(C(F)(F)F)cc(C(F)(F)F)c2)n1)c1cncnc1 + Cc1c(S(C)(=O)=O)c(-c2cc(F)cc(N3CCN(c4ccc(NS(=O)(=O)c5ccc(NC(CCN6CCC(C(=O)OCCCP(=O)(O)O)CC6)CSc6ccccc6)c(S(=O)(=O)C(F)(F)F)c5)cc4)CC3)c2)c(-c2ccc(Cl)cc2)n1C(C)C
active: viability, T/C (second compound 0.1 µM, first compound 0.0949 µM) 16.4% | viability, T/C (second compound 0.1 µM, first compound 0.3 µM) 4.19% | viability, T/C (second compound 0.316 µM, first compound 0.03 µM) 7.11% | viability, T/C (second compound 0.316 µM, first compound 0.0949 µM) 2.26% | viability, T/C (second compound 0.316 µM, first compound 0.3 µM) 1.84% | viability, T/C (second compound 1 µM, first compound 0.03 µM) 7.14% | viability, T/C (second compound 1 µM, first compound 0.0949 µM) 3.61% | viability, T/C (second compound 1 µM, first compound 0.3 µM) 2.25% | viability, T/C (second compound 3.16 µM, first compound 0.03 µM) 5.04% | viability, T/C (second compound 3.16 µM, first compound 0.0949 µM) 3% | viability, T/C (second compound 3.16 µM, first compound 0.3 µM) 4.14% | viability, T/C (second compound 10 µM, first compound 0.03 µM) 3.72% | viability, T/C (second compound 10 µM, first compound 0.0949 µM) 1.94% | viability, T/C (second compound 10 µM, first compound 0.3 µM) 0.83%
inactive: viability, T/C (second compound 0.1 µM, first compound 0.000949 µM) 47.5% | viability, T/C (second compound 0.1 µM, first compound 0.003 µM) 36.2% | viability, T/C (second compound 0.1 µM, first compound 0.00949 µM) 22.7% | viability, T/C (second compound 0.1 µM, first compound 0.03 µM) 6.11% | viability, T/C (second compound 0.316 µM, first compound 0.000949 µM) 47% | viability, T/C (second compound 0.316 µM, first compound 0.003 µM) 31.2% | viability, T/C (second compound 0.316 µM, first compound 0.00949 µM) 12.9% | viability, T/C (second compound 1 µM, first compound 0.000949 µM) 34% | viability, T/C (second compound 1 µM, first compound 0.003 µM) 38.8% | viability, T/C (second compound 1 µM, first compound 0.00949 µM) 13.9% | viability, T/C (second compound 3.16 µM, first compound 0.000949 µM) 30.6% | viability, T/C (second compound 3.16 µM, first compound 0.003 µM) 25.2% | viability, T/C (second compound 3.16 µM, first compound 0.00949 µM) 14.1% | viability, T/C (second compound 10 µM, first compound 0.000949 µM) 24.6% | viability, T/C (second compound 10 µM, first compound 0.003 µM) 33.5% | viability, T/C (second compound 10 µM, first compound 0.00949 µM) 13.9%
< 0.949 nM: IC50 (second compound 0.1 µM) | IC50 (second compound 0.316 µM) | IC50 (second compound 1 µM) | IC50 (second compound 3.16 µM) | IC50 (second compound 10 µM)

NC1CCC(NC2CC2c2ccccc2)CC1 (stereo not given) + Cc1c(S(C)(=O)=O)c(-c2cc(F)cc(N3CCN(c4ccc(NS(=O)(=O)c5ccc(NC(CCN6CCC(C(=O)OCCCP(=O)(O)O)CC6)CSc6ccccc6)c(S(=O)(=O)C(F)(F)F)c5)cc4)CC3)c2)c(-c2ccc(Cl)cc2)n1C(C)C
inactive: viability, T/C (second compound 0.1 µM, first compound 0.000316 µM) 36.7% | viability, T/C (second compound 0.1 µM, first compound 0.001 µM) 31.1% | viability, T/C [1] 37.3% | viability, T/C [2] 37.3% | viability, T/C [3] 33.7% | viability, T/C [4] 37% | viability, T/C (second compound 0.316 µM, first compound 0.000316 µM) 39.7% | viability, T/C (second compound 0.316 µM, first compound 0.001 µM) 42.1% | viability, T/C [5] 31.7% | viability, T/C [6] 26.7% | viability, T/C [7] 35.9% | viability, T/C [8] 30.5% | viability, T/C (second compound 1 µM, first compound 0.000316 µM) 27.6% | viability, T/C (second compound 1 µM, first compound 0.001 µM) 19.3% | viability, T/C [9] 31.9% | viability, T/C [10] 31.5% | viability, T/C [11] 31.1% | viability, T/C [12] 39.5% | viability, T/C (second compound 3.16 µM, first compound 0.000316 µM) 25.2% | viability, T/C (second compound 3.16 µM, first compound 0.001 µM) 32.8% | viability, T/C [13] 22.7% | viability, T/C [14] 35.9% | viability, T/C [15] 24.9% | viability, T/C [16] 35.4% | viability, T/C (second compound 10 µM, first compound 0.000316 µM) 20.4% | viability, T/C (second compound 10 µM, first compound 0.001 µM) 20.4% | viability, T/C [17] 21.2% | viability, T/C [18] 20.6% | viability, T/C [19] 24.5% | viability, T/C [20] 27.6%
< 0.316 nM: IC50 (second compound 0.1 µM) | IC50 (second compound 0.316 µM) | IC50 (second compound 1 µM) | IC50 (second compound 3.16 µM) | IC50 (second compound 10 µM)
